Laboratory results from patent US10034886B2, “GLP-1 receptor modulators” (Celgene International II SÀRL, priority 2014, dated 2018).
Like-named read-outs stand apart in the source and are kept apart here.

Target: T1, GLP-1R (Homo sapiens, UniProt P43220)
T1 construct: host or cells: GLP-1R CRE-bla CHO-K1 cells
Test: EC20 GLP-1(9-36) PAM cAMP assay: dose response of compound in the presence of fixed concentration of GLP-1(9-36)
Format: cell-based
Settings: GLP-1R CRE-bla CHO-K1 cells, read-out: EC20 GLP-1(9-36) PAM EC50
Procedure, shortened: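 Positive allosteric modulation read as cAMP accumulation: compound titrations (12 points) combined with an EC20 level of GLP-1(9-36) on CHO-K1 GLP-1R CRE-bla cells, IBMX present, 30 min, 37 °C, pH 7.4 buffer. Luminescence converted to cAMP via standards; non-linear fit gave EC50 and Emax.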

[1] = dose response of compound in presence of fixed concentration of GLP-1(9-36)
[2] = compound dose response with fixed concentration of GLP-1(9-36)

T1 sequence (P43220 24-463): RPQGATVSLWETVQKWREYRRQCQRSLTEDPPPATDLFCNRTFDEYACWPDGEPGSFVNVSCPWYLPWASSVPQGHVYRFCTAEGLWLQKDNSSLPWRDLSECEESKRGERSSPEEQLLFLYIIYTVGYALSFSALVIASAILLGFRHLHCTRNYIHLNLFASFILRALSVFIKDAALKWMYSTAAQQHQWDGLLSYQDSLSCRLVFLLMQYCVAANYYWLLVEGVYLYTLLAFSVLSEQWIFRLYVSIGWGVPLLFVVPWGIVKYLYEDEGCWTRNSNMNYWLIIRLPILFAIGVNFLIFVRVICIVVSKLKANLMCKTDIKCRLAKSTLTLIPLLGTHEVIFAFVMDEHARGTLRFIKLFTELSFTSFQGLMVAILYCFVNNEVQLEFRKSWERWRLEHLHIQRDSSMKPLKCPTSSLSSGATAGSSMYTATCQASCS
T1 sequence (P01275 100-127 partner limits assumed): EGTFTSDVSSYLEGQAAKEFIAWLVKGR

Row | SMILES | EC50 [1] [µM] | EC50 [2] [µM]
1 | CCCCCCCOc1ccc(-c2cnc(-c3ccc(C(NC(=O)c4ccc(C(C)(C)C)s4)C(=O)O)cc3)nc2)cc1 (centres unmarked) [Compound 289, 2-(5-(tert-butyl)thiophene-2-carboxamido)-2-(4-(5-(4-(heptyloxy)phenyl)pyrimidin-2-yl)phenyl)acetic acid] | 2.5 to 5 | 
2 | Cc1ccc(-c2ccc(-c3ccc(-c4cnc(-c5ccc(C[C@H](NC(=O)c6ccc(C(C)(C)C)s6)C(=O)N6CC(C(=O)O)C6)cc5)nc4)c(F)c3)cc2)cc1 [Compound 1214] |  | 2.5 to 5
3 | CCCCCCCOc1ccc(-c2cnc(-c3ccc(C[C@H](NC(=O)c4ccc(C(C)(C)C)cc4)C(=O)N[C@@H](CCCN)C(=O)O)cc3)nc2)cc1 [Compound 469] | 0.8 to 2.5 | 
4 | CC(C)(C)c1ccc(-c2cnc(-c3ccc(C[C@H](NC(=O)c4ccc(C(C)(C)C)s4)C(=O)N[C@H]4CCC[C@H]4C(=O)O)cc3)nc2)cc1 [Compound 382] | 0.8 to 2.5 | 
5 | CCC(CC)Oc1ccc(-c2cnc(-c3ccc(C[C@H](NC(=O)c4ccc(C(C)(C)C)s4)C(=O)N4CC(C(=O)O)C4)cc3)nc2)cc1 [Compound 919] | 5 to 10 | 
6 | CC(C)(C)c1ccc(C(=O)N[C@@H](Cc2ccc(-c3ncc(-c4ccc(-c5ccc(Cl)cc5)cc4F)cn3)cc2)C(=O)N2CC(C(=O)O)C2)s1 [Compound 1190] | < 0.8 | 
7 | CCCCCCCOc1ccc(-c2cnc(-c3ccc(CC(NC(=O)c4ccc(C(C)(C)C)s4)C(=O)N[C@H](C(=O)O)[C@@H](C)O)cc3)nc2)cc1 (some centres unmarked) [Compound 424] | < 0.8 | 
8 | CCOc1ccc(-c2ccc(-c3cnc(-c4ccc(C[C@H](NC(=O)c5ccc(C(C)(C)C)s5)C(=O)N5CC(C(=O)O)C5)cc4)nc3)c(F)c2)cc1 [Compound 1330] |  | < 0.8
9 | CCCCCCCOc1ccc(-c2cnc(-c3ccc(C[C@H](NC(=O)Cc4ccc(OCCCC)cc4)C(=O)N4CCC[C@H]4C(=O)O)cc3)nc2)cc1 [Compound 1070] | 0.8 to 2.5 | 
10 | CCOc1ccc(-c2cnc(-c3ccc(C[C@H](NC(=O)c4ccc(C(C)(C)C)s4)C(=O)O)cc3)nc2)cc1 [Compound 1349] |  | 5 to 10
11 | CCCCCCCOc1ccc2cc(-c3ccc(C[C@H](NC(=O)c4ccc(C(C)(C)C)cc4)C(=O)O)cc3)ncc2c1 [Compound 672, (S)-2-(4-(tert-butyl)benzamido)-3-(4-(7-(heptyloxy)isoquinolin-3-yl)phenyl)propanoic acid] | 2.5 to 5 | 
12 | CCCCCCCOc1ccc(-c2cnc(-c3ccc(C[C@H](NC(=O)c4ccc(C(C)(C)C)s4)C(=O)NC(C)CO)cc3)nc2)cc1 (some centres unmarked) [Compound 387] | 5 to 10 | 
13 | CC(C)Oc1ccc(-c2cnc(-c3ccc(C[C@H](NC(=O)c4ccc(C(C)(C)C)s4)C(=O)NC(C(=O)O)C(O)c4ccccc4)cc3)nc2)cc1 (some centres unmarked) [Compound 931] | 2.5 to 5 | 
14 | CC(C)Oc1cc(-c2cnc(-c3ccc(C[C@H](NC(=O)c4ccc(C(C)(C)C)s4)C(=O)N[C@H](C)C(=O)O)cc3)nc2)cc(Cl)c1OC(C)C [Compound 1017] | 2.5 to 5 | 
15 | CCCCCCOc1cccc(-c2noc(-c3cnc(-c4ccc(C[C@H](NC(=O)c5ccc(C(C)(C)C)cc5)C(=O)NCCC(=O)O)cc4)nc3)n2)c1 [Compound 760] | 0.8 to 2.5 | 
16 | CCCC[C@H]1CC[C@H](c2ccc(-c3cnc(-c4ccc(C[C@H](NC(=O)c5ccc(C(C)(C)C)s5)C(=O)N[C@H](C)C(=O)O)cc4)nc3)cc2)CC1 [Compound 1317] |  | < 0.8
17 | CC1CCC(c2ccc(-c3cnc(-c4ccc(C[C@H](NC(=O)c5ccc(C(C)(C)C)s5)C(=O)N[C@H](C)C(=O)O)cc4)nc3)cc2)CC1 (some centres unmarked) [Compound 1145] | < 0.8 | 
18 | CCCCCCCOc1ccc(-c2ncc(-c3ccc(C[C@H](NC(=O)c4ccc(C(C)(C)C)cc4)C(=O)O)cc3)nn2)cc1 [Compound 275] | 0.8 to 2.5 | 
19 | C[C@@H](NC(=O)[C@H](Cc1ccc(-c2ncc(-c3ccc(-c4ccccc4F)cc3)cn2)cc1)NC(=O)c1ccc(C(C)(C)C)s1)C(=O)O [Compound 1133] | < 0.8 | 
20 | CCc1ccc(C(=O)N[C@@H](Cc2ccc(-c3ncc(-c4ccc([C@H]5CC[C@H](CC)CC5)cc4)cn3)cc2)C(=O)N2CC(C(=O)O)C2)nc1 [Compound 1342] |  | 0.8 to 2.5
21 | CC(C)(C)c1ccc(C(=O)N[C@@H](Cc2ccc(-c3ncc(-c4ccc(OCCC5CCCC5)cc4)cn3)cc2)C(=O)NC(C(=O)O)C(O)c2ccccc2)s1 (some centres unmarked) [Compound 939] | 2.5 to 5 | 
22 | CCCCCCCOc1ccc(-c2cnc(-c3ccc(C[C@H](NC(=O)c4ccc(C(C)(C)C)s4)C(=O)N4CC[C@H](C(=O)NS(=O)(=O)CC(F)(F)F)C4)cc3)nc2)cc1 [Compound 887] | < 0.8 | 
23 | CC[C@H]1CC[C@H](c2ccc(-c3ccc(-c4ccc(C[C@H](NC(=O)c5ccc(C(C)(C)C)s5)C(=O)O)cc4)cn3)cc2)CC1 [Compound 1335] |  | 2.5 to 5
24 | CCCCCCCOc1ccc(-c2cnc(-c3ccc(C[C@H](NC(=O)c4ccc(C(C)(C)C)cc4)C(=O)NC(C(=O)O)C4CCOCC4)cc3)nc2)cc1 (some centres unmarked) [Compound 540] | < 0.8 | 
25 | CCCCCCCOc1ccc(-c2cnc(-c3ccc(C[C@H](NC(=O)c4ccc(C(C)(C)C)s4)C(=O)NC(CCS(C)(=O)=O)C(=O)O)cc3)nc2)cc1 (some centres unmarked) [Compound 597] | < 0.8 | 

Row | SMILES | EC50 [1] [µM] | EC50 [2] [µM]
26 | C[C@@H](NC(=O)[C@H](Cc1ccc(-c2ncc(-c3ccc4c(c3)Cc3ccccc3-4)cn2)cc1)NC(=O)c1ccc(C(C)(C)C)s1)C(=O)O [Compound 1299] |  | 0.8 to 2.5
27 | CCCCCCCOc1ccc(-c2cnc(-c3ccc(C[C@H](NC(=O)c4ccc(C(C)(C)C)s4)C(=O)N[C@@H](Cn4cccn4)C(=O)O)cc3)nc2)cc1 [Compound 594] | < 0.8 | 
28 | CCCCCCCOc1ccc(-c2cnc(-c3ccc(C[C@H](NC(=O)c4ccc(C(C)(C)C)s4)C(=O)N4CC(C)(C(=O)O)C4)cc3)nc2)cc1 [Compound 874] | 0.8 to 2.5 | 
29 | CCCc1ccc(-c2ccc(-c3cnc(-c4ccc(C[C@H](NC(=O)c5ccc(C(C)(C)C)s5)C(=O)O)cc4)nc3)cc2)cc1 [Compound 1393] |  | 0.8 to 2.5
30 | CCCCCCCOc1ccc(-c2cnc(-c3ccc(C[C@H](NC(=O)c4ccc(C(C)(C)C)s4)C(=O)N[C@H]4C[C@H](N)C4)cc3)nc2)cc1 [Compound 1281] |  | 2.5 to 5
31 | C[C@@H](NC(=O)[C@H](Cc1ccc(-c2ncc(-c3ccc(-c4ccc(C(C)(C)C)cc4)cc3)cn2)cc1)NC(=O)c1ccc(C(C)(C)C)s1)C(=O)O [Compound 1312] |  | 0.8 to 2.5
32 | Cc1cccc(-c2ccc(-c3cnc(-c4ccc(C[C@H](NC(=O)c5ccc(C(C)(C)C)s5)C(=O)N[C@H](C)C(=O)O)cc4)nc3)cc2F)c1 [Compound 1141] | < 0.8 | 
33 | CCC[C@H]1CC[C@H](C2CC(=O)N(c3cnc(-c4ccc(C[C@H](NC(=O)c5ccc(C(C)(C)C)s5)C(=O)N5CC(C(=O)O)C5)cc4)nc3)C(=O)C2)CC1 [Compound 1512] |  | < 0.8
34 | CCCCCCCOc1ccc(-c2cnc(-c3ccc(C[C@H](NC(=O)c4ccc(C(C)(C)C)cc4C)C(=O)N[C@H](C)C(=O)O)cc3)nc2)cc1 [Compound 843] | 0.8 to 2.5 | 
35 | CCC(C)COc1ccc(-c2cnc(-c3ccc(C[C@H](NC(=O)c4ccc(C(C)(C)C)cc4)C(=O)NCCC(=O)O)cc3)nc2)cc1 (some centres unmarked) [Compound 473] | 5 to 10 | 
36 | CCC[C@H]1CC[C@H](C2CCN(c3cnc(-c4ccc(CC(NC(=O)c5ccc(C(C)(C)C)s5)C(=O)NS(=O)(=O)CC)cc4)nc3)CC2)CC1 (some centres unmarked) [Compound 1539] |  | 2.5 to 5
37 | CC(C)(C)Cc1noc(-c2cnc(-c3ccc(C[C@H](NC(=O)c4ccc(C(C)(C)C)cc4)C(=O)NCCC(=O)O)cc3)nc2)n1 [Compound 744] | 5 to 10 | 
38 | CC(C)(C)c1ccc(C(=O)N[C@@H](Cc2ccc(-c3ncc(-c4ccc(C(F)(F)F)cc4)cn3)cc2)C(=O)N2CC(C(=O)O)C2)s1 [Compound 788] | 5 to 10 | 
39 | C[C@@H](NC(=O)[C@H](Cc1ccc(-c2ncc(-c3cc(OCc4ccccc4)ncc3F)cn2)cc1)NC(=O)c1ccc(C(C)(C)C)s1)C(=O)O [Compound 1041] | 0.8 to 2.5 | 
40 | CC(C)(C)c1ccc(C(=O)N[C@@H](Cc2ccc(-c3ncc(-c4nc(-c5ccc(Cl)cc5)no4)cn3)cc2)C(=O)NCCC(=O)O)cc1 [Compound 751] | 2.5 to 5 | 
41 | CCc1ccc(C2CCN(c3cnc(-c4ccc(C[C@H](NC(=O)c5ccc(C(C)(C)C)s5)C(=O)N5CC(C(=O)O)C5)cc4)nc3)CC2)cc1 [Compound 1474] |  | < 0.8
42 | CCCCCCCOc1ccc(-c2cnc(-c3ccc(C[C@H](NC(=O)c4ccc(O)c(F)c4)C(=O)N[C@H](C)C(=O)O)cc3)nc2)cc1 [Compound 983] | 5 to 10 | 
43 | CCCCCCCOc1ccc(-c2cnc(-c3ccc(C[C@H](NC(=O)c4ccc(C(C)(C)C)s4)C(=O)N4CCC[C@H]4C(=O)NS(C)(=O)=O)cc3)nc2)cc1 [Compound 495] | < 0.8 | 
44 | CCC[C@H]1CC[C@H](C2CCN(c3cnc(-c4ccc(C[C@H](NC(=O)c5ccc(CC)s5)C(=O)N5CC(C(=O)O)C5)cc4)nc3)CC2)CC1 [Compound 1533] |  | < 0.8
45 | CCCc1ccc(-c2ccc(-c3cnc(-c4ccc(C[C@H](NC(=O)C5CCC(C(C)(C)C)CC5)C(=O)N5CC(C(=O)O)C5)cc4)nc3)c(F)c2)cc1 (some centres unmarked) [Compound 1401] |  | < 0.8
46 | C[C@@H](NC(=O)[C@H](Cc1ccc(-c2ncc(N3CCN(CC4CCCCC4)C3=O)cn2)cc1)NC(=O)c1ccc(C(C)(C)C)s1)C(=O)O [Compound 1267] |  | 5 to 10
47 | CCCCCCCOc1ccc(-c2cnc(-c3ccc(C[C@H](NC(=O)c4ccc(C(C)(C)C)cc4)C(=O)N[C@@H](CC(=O)NCC(N)=O)C(=O)O)cc3)nc2)cc1 [Compound 482] | < 0.8 | 
48 | CCOc1ccc(/C=C/c2cnc(-c3ccc(C[C@H](NC(=O)c4ccc(C(C)(C)C)s4)C(=O)N[C@H](C)C(=O)O)cc3)nc2)cc1 [Compound 1258] |  | 0.8 to 2.5
49 | CCCCCCCOc1ccc(-c2cnc(-c3ccc(C[C@H](NC(=O)c4ccc(C(C)(C)C)s4)C(=O)NC(C(=O)O)[C@@H](O)c4ccccc4)cc3)nc2)cc1 (some centres unmarked) [Compound 651] | < 0.8 | 
50 | CC[C@H]1CC[C@H](c2ccc(-c3cnc(-c4ccc(C[C@H](NC(=O)c5ccc(Cl)cc5)C(=O)O)cc4)nc3)cc2)CC1 [Compound 1386] |  | 0.8 to 2.5
